{"source": "patent US20080045537A1", "about": "“Chemical Compounds” (priority 2004, published 2008)"}
{"system": "HIV-1 IIIB (T-tropic, CXCR4 utilizing)", "assay": "HOS HIV-1 infectivity assay", "type": "cell-based", "details": "Human immunodeficiency virus 1, IIIB; as determined by the infectivity assay; strain not stated in Table 2; read-out: Activity Level", "method": "Compounds were profiled against two HIV-1 viruses, the M-tropic (CCR5 utilizing) Ba-L strain and the T-tropic (CXCR4 utilizing) IIIB strain. Both viruses were propagated in human peripheral blood lymphocytes. Compounds were tested for there ability to block infection of the HOS cell line (expressing hCXCR4/hCCR5/hCD4/pHIV-LTR-luciferase) by either HIV-1 Ba-L or HIV-1 IIIB. Compound cytotoxicity was also examined in the absence of virus addition.\nHOS cells (expressing hCXCR4/hCCR5/hCD4/pHIV-LTR-luciferase) were harvested and diluted in Dulbeccos modified Eagles media supplemented with 2% FCS and non-essential amino acid to a concentration of 60,000 cells/ml. The cells were plated into 96-well plates (100 ul per well) and the plates were placed in a tissue culture incubator (37° C.; 5% CO2/95% air) for a period of 24 h.\nSubsequently, 50 ul of the desired drug solution (4 times the final concentration) was added to each well and the plates were returned to the tissue culture incubator (37° C.; 5% CO2/95% air) for 1 h. Following this incubation 50 ul of diluted virus was added to each well (approximately 2 million RLU per well of virus). The plates were returned to the tissue culture incubator (37° C.; 5% CO2/95% air) and were incubated for a further 96 h.\nFollowing this incubation the endpoint for the virally infected cultures was quantified following addition of Steady-Glo Luciferase assay system reagent (Promega, Madison, Wis.). Cell viability or non-infected cultures was measured using a CellTiter-Glo luminescent cell viability assay system (Promega, Madison, Wis.). All luminescent readouts are performed on a Topcount luminescence detector (Packard, Meridien, Conn.).", "units": {"IC50": "nM"}}
{"compound": "CN(Cc1nc2cc(C(N)=O)ccc2[nH]1)C1CCCc2cccnc21", "note": "(stereo not drawn) [Example 37, 2-{[Methyl(5,6,7,8-tetrahydroquinolin-8-yl)amino]methyl}-1H-benzimidazole-5-carboxamide]", "IC50": "< 100"}
{"compound": "CN(Cc1nc2cc(C(=O)NCC3CCNCC3)ccc2[nH]1)C1CCCc2cccnc21", "note": "(stereo not drawn) [Example 38, 2-{[Methyl(5,6,7,8-tetrahydroquinolin-8-yl)amino]methyl}-N-(piperidin-4-ylmethyl)-1H-benzimidazole-5-carboxamide]", "IC50": "500 to 10000"}
{"compound": "CN(Cc1nc2cc(C(=O)NCc3cccnc3)ccc2[nH]1)C1CCCc2cccnc21", "note": "(stereo not drawn) [Example 39, 2-{[Methyl(5,6,7,8-tetrahydro-8-quinolinyl)amino]methyl}-N-(3-pyridinylmethyl)-1H-benzimidazole-5-carboxamide]", "IC50": "500 to 10000"}
{"compound": "CN(Cc1nc2cc(C(=O)NCc3ccncc3)ccc2[nH]1)C1CCCc2cccnc21", "note": "(stereo not drawn) [Example 40, 2-{[Methyl(5,6,7,8-tetrahydro-8-quinolinyl)amino]methyl}-N-(4-pyridinylmethyl)-1H-benzimidazole-5-carboxamide]", "IC50": "500 to 10000"}
{"compound": "CN(Cc1nc2cc(C(=O)NCC3CCCCC3)ccc2[nH]1)C1CCCc2cccnc21", "note": "(stereo not drawn) [Example 41, N-(Cyclohexylmethyl)-2-{[methyl(5,6,7,8-tetrahydro-8-quinolinyl)amino]methyl}-1H-benzimidazole-5-carboxamide]", "IC50": "500 to 10000"}
{"compound": "CN(Cc1nc2ccc(C(=O)N3CCC(CCN4CCCC4)CC3)cc2[nH]1)C1CCCc2cccnc21", "note": "(stereo not drawn) [Example 42, N-Methyl-N-{[5-({4-[2-(1-pyrrolidinyl)ethyl]-1-piperidinyl}carbonyl)-1H-benzimidazol-2-yl]methyl}-5,6,7,8-tetrahydro-8-quinolinamine]", "IC50": "500 to 10000"}
{"compound": "CCN(Cc1nc2ccc(C(=O)NCCc3cncn3C)cc2[nH]1)C1CCCc2cccnc21", "note": "(stereo not drawn) [Example 43, 2-{[ethyl(5,6,7,8-tetrahydro-8-quinolinyl)amino]methyl}-N-[2-(1-methyl-1H-imidazol-5-yl)ethyl]-1H-benzimidazole-5-carboxamide]", "IC50": "100 to 500"}
{"compound": "CCN(Cc1nc2cc(C(=O)NCCCCCN)ccc2[nH]1)C1CCCc2cccnc21", "note": "(stereo not drawn) [Example 44, N-(5-Aminopentyl)-2-{[ethyl(5,6,7,8-tetrahydro-8-quinolinyl)amino]methyl}-1H-benzimidazole-5-carboxamide]", "IC50": "500 to 10000"}
{"compound": "CCN(CC)CCN1CCN(C(=O)c2ccc3[nH]c(CN(CC)C4CCCc5cccnc54)nc3c2)CC1", "note": "(stereo not drawn) [Example 46, N-{[5-({4-[2-(Diethylamino)ethyl]-1-piperazinyl}carbonyl)-1H-benzimidazol-2-yl]methyl}-N-ethyl-5,6,7,8-tetrahydro-8-quinolinamine]", "IC50": "500 to 10000"}
{"compound": "CCN(Cc1nc2cc(C(=O)N3CCN(C)CC3)ccc2[nH]1)C1CCCc2cccnc21", "note": "(stereo not drawn) [Example 48, N-Ethyl-N-({5-[(4-methyl-1-piperazinyl)carbonyl]-1H-benzimidazol-2-yl}methyl)-5,6,7,8-tetrahydro-8-quinolinamine]", "IC50": "100 to 500"}
{"compound": "CCN(Cc1nc2cc(C(=O)N(C)CCN(C)C)ccc2[nH]1)C1CCCc2cccnc21", "note": "(stereo not drawn) [Example 49, N-[2-(Dimethylamino)ethyl]-2-{[ethyl(5,6,7,8-tetrahydro-8-quinolinyl)amino]methyl}-N-methyl-1H-benzimidazole-5-carboxamide]", "IC50": "500 to 10000"}
{"compound": "CCN(Cc1nc2cc(C(=O)NCCN(C)C)ccc2[nH]1)C1CCCc2cccnc21", "note": "(stereo not drawn) [Example 50, N-[2-(Dimethylamino)ethyl]-2-{[ethyl(5,6,7,8-tetrahydro-8-quinolinyl)amino]methyl}-1H-benzimidazole-5-carboxamide]", "IC50": "100 to 500"}
{"compound": "CNCCN(C)C(=O)c1ccc2[nH]c(CN(C)C3CCCc4cccnc43)nc2c1", "note": "(stereo not drawn) [Example 51, N-Methyl-N-[2-(methylamino)ethyl]-2-{[methyl(5,6,7,8-tetrahydro-8-quinolinyl)amino]methyl}-1H-benzimidazole-5-carboxamide]", "IC50": "< 100"}
{"compound": "CN(C)CCNC(=O)c1ccc2[nH]c(CN(C)C3CCCc4cccnc43)nc2c1", "note": "(stereo not drawn) [Example 52, N-[2-(Dimethylamino)ethyl]-2-{[methyl(5,6,7,8-tetrahydro-8-quinolinyl)amino]methyl}-1H-benzimidazole-5-carboxamide]", "IC50": "< 100"}
{"compound": "CNCCNC(=O)c1ccc2[nH]c(CN(C)C3CCCc4cccnc43)nc2c1", "note": "(stereo not drawn) [Example 53, N-[2-(Methylamino)ethyl]-2-{[methyl(5,6,7,8-tetrahydro-8-quinolinyl)amino]methyl}-1H-benzimidazole-5-carboxamide]", "IC50": "< 100"}
{"compound": "CN(Cc1nc2cc(C(=O)NCC(C)(C)CN)ccc2[nH]1)C1CCCc2cccnc21", "note": "(stereo not drawn) [Example 54, N-(3-Amino-2,2-dimethylpropyl)-2-{[methyl(5,6,7,8-tetrahydro-8-quinolinyl)amino]methyl}-1H-benzimidazole-5-carboxamide]", "IC50": "100 to 500"}
{"compound": "CN(C)CCN(C)C(=O)c1ccc2[nH]c(CN(C)C3CCCc4cccnc43)nc2c1", "note": "(stereo not drawn) [Example 55, N-[2-(Dimethylamino)ethyl]-N-methyl-2-{[methyl(5,6,7,8-tetrahydro-8-quinolinyl)amino]methyl}-1H-benzimidazole-5-carboxamide]", "IC50": "< 100"}
{"compound": "CN(Cc1nc2cc(C(=O)N3CCN(C(=O)OCc4ccccc4)CC3)ccc2[nH]1)C1CCCc2cccnc21", "note": "(stereo not drawn) [Example 56, Phenylmethyl 4-[(2-{[methyl(5,6,7,8-tetrahydro-8-quinolinyl)amino]methyl}-1H-benzimidazol-5-yl)carbonyl]-1-piperazinecarboxylate]", "IC50": "500 to 10000"}
{"compound": "CN(Cc1nc2cc(C(=O)N3CCNCC3)ccc2[nH]1)C1CCCc2cccnc21", "note": "(stereo not drawn) [Example 57, N-Methyl-N-{[5-(1-piperazinylcarbonyl)-1H-benzimidazol-2-yl]methyl}-5,6,7,8-tetrahydro-8-quinolinamine]", "IC50": "500 to 10000"}
{"compound": "CN1CCN(C(=O)c2ccc3[nH]c(CN(C)C4CCCc5cccnc54)nc3c2)CC1", "note": "(stereo not drawn) [Example 58, N-Methyl-N-({5-[(4-methyl-1-piperazinyl)carbonyl]-1H-benzimidazol-2-yl}methyl)-5,6,7,8-tetrahydro-8-quinolinamine]", "IC50": "100 to 500"}
{"compound": "CN(Cc1nc2cc(C(=O)N3CCN(Cc4ccccc4)CC3)ccc2[nH]1)C1CCCc2cccnc21", "note": "(stereo not drawn) [Example 59, N-Methyl-N-[(5-{[4-(phenylmethyl)-1-piperazinyl]carbonyl}-1H-benzimidazol-2-yl)methyl]-5,6,7,8-tetrahydro-8-quinolinamine]", "IC50": "500 to 10000"}
{"compound": "CN(Cc1nc2cccc(C(=O)NCCCCCN)c2[nH]1)C1CCCc2cccnc21", "note": "(stereo not drawn) [Example 61, N-(5-Aminopentyl)-2-{[methyl(5,6,7,8-tetrahydro-8-quinolinyl)amino]methyl}-1H-benzimidazole-4-carboxamide]", "IC50": "100 to 500"}
{"compound": "CN(Cc1nc2cccc(C(=O)N3CCN(Cc4ccccc4)CC3)c2[nH]1)C1CCCc2cccnc21", "note": "(stereo not drawn) [Example 62, N-Methyl-N-[(4-{[4-(phenylmethyl)-1-piperazinyl]carbonyl}-1H-benzimidazol-2-yl)methyl]-5,6,7,8-tetrahydro-8-quinolinamine]", "IC50": "500 to 10000"}
{"compound": "COCCNC(=O)c1cccc2nc(CN(C)C3CCCc4cccnc43)[nH]c12", "note": "(stereo not drawn) [Example 64, N-[2-(Methyloxy)ethyl]-2-{[methyl(5,6,7,8-tetrahydro-8-quinolinyl)amino]methyl}-1H-benzimidazole-4-carboxamide]", "IC50": "500 to 10000"}
{"compound": "CN(Cc1nc2c(C(=O)NCCc3cncn3C)cccc2[nH]1)C1CCCc2cccnc21", "note": "(stereo not drawn) [Example 67, N-[2-(1-methyl-1H-imidazol-5-yl)ethyl]-2-{[methyl(5,6,7,8-tetrahydro-8-quinolinyl)amino]methyl}-1H-benzimidazole-4-carboxamide]", "IC50": "100 to 500"}
{"compound": "CN(Cc1nc2c(C(=O)N3CCN(Cc4ccccn4)CC3)cccc2[nH]1)C1CCCc2cccnc21", "note": "(stereo not drawn) [Example 68, N-Methyl-N-[(4-{[4-(2-pyridinylmethyl)-1-piperazinyl]-carbonyl}-1H-benzimidazol-2-yl)methyl]-5,6,7,8-tetrahydro-8-quinolinamine]", "IC50": "500 to 10000"}
{"compound": "CN(Cc1nc2c(C(=O)NCCc3cccnc3)cccc2[nH]1)C1CCCc2cccnc21", "note": "(stereo not drawn) [Example 69, 2-{[Methyl(5,6,7,8-tetrahydro-8-quinolinyl)amino]methyl}-N-[2-(3-pyridinyl)ethyl]-1H-benzimidazole-4-carboxamide]", "IC50": "500 to 10000"}
{"compound": "CN(Cc1nc2c(C(=O)NCCc3ccncc3)cccc2[nH]1)C1CCCc2cccnc21", "note": "(stereo not drawn) [Example 71, 2-{[Methyl(5,6,7,8-tetrahydro-8-quinolinyl)amino]methyl}-N-[2-(4-pyridinyl)ethyl]-1H-benzimidazole-4-carboxamide]", "IC50": "500 to 10000"}
{"compound": "CN1CCN(CCCNC(=O)c2cccc3[nH]c(CN(C)C4CCCc5cccnc54)nc23)CC1", "note": "(stereo not drawn) [Example 73, N-[3-(4-Methyl-1-piperazinyl)propyl]-2-{[methyl(5,6,7,8-tetrahydro-8-quinolinyl)amino]methyl}-1H-benzimidazole-4-carboxamide]", "IC50": "100 to 500"}
{"compound": "CN(Cc1nc2c(C(=O)NCCCN3CCOCC3)cccc2[nH]1)C1CCCc2cccnc21", "note": "(stereo not drawn) [Example 74, 2-{[Methyl(5,6,7,8-tetrahydro-8-quinolinyl)amino]methyl}-N-[3-(4-morpholinyl)propyl]-1H-benzimidazole-4-carboxamide]", "IC50": "< 100"}
